Earlier results, collected in patent publication US8642009B2, “Diagnostic system for the detection of skin cancer” (priority 2005, dated 2014).
Where two headings read alike, the source gives them in different places. Marks after values point to notes of the source that are not given here. Each block holds one substance with its values, some of them ahead of it.

Columns and labels:
[1] = tested on: Osteo murine osteosarcoma; conditions: Osteo tumour model
[2] = target: αvβ3 (Homo sapiens, UniProt P05106+P06756)
[3] = tested on: MDA-MB human breast cancer; conditions: MDA-MB tumour model, 120 min p.i.
[4] = tested on: U87MG human glioblastoma; conditions: U87MG tumour model
[5] = tested on: M21 human melanoma; conditions: M21 tumour model, 120 min p.i.
[6] = tested on: ACHN human renal adenocarcinoma; conditions: in vivo
[7] = tested on: CA20948 rat pancreatic tumour; conditions: CA20948 tumour model, 4 h p.i.
[8] = tested on: DLD-1 human colon adenocarcinoma; conditions: DLD-1 tumour model, 60 min p.i.
[9] = tested on: OVCAR-3 ovarian carcinoma; conditions: OVCAR-3 tumour model, 120 min p.i.; for Tumour/blood: estimated from graphical presentations
[10] = 4 h p.i., estimated from graphical presentations

Chain of αvβ3 (P06756 31-889 limits assumed): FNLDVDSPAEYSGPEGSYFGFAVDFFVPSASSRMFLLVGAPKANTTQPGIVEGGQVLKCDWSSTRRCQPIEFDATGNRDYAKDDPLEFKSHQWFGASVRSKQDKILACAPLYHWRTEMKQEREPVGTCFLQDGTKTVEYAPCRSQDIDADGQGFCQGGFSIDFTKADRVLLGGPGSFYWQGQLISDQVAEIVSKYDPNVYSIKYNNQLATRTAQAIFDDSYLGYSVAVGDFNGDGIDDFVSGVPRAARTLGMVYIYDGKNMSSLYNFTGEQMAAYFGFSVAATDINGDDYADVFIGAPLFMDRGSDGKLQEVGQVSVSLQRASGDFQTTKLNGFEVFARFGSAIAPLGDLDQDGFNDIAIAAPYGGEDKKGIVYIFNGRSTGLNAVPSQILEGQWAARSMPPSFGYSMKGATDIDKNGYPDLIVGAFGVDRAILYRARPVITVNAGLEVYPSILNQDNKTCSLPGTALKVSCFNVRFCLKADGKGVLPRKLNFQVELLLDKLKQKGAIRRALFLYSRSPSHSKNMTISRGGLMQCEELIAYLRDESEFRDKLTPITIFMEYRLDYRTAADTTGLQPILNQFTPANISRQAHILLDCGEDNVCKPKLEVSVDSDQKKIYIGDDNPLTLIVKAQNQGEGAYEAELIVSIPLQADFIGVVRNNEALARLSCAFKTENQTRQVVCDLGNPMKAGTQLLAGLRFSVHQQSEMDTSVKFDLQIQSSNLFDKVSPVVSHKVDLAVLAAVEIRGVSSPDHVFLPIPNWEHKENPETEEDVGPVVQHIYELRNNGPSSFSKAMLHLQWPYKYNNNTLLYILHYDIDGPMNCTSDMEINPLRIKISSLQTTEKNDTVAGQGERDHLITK
Chain of αvβ3 (P06756 891-1048 partner limits assumed): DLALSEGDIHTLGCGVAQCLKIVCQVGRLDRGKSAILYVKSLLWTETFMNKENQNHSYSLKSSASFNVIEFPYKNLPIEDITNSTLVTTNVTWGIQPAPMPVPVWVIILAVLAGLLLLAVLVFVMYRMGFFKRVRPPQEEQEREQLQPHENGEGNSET
Chain of αvβ3 (P05106 27-788): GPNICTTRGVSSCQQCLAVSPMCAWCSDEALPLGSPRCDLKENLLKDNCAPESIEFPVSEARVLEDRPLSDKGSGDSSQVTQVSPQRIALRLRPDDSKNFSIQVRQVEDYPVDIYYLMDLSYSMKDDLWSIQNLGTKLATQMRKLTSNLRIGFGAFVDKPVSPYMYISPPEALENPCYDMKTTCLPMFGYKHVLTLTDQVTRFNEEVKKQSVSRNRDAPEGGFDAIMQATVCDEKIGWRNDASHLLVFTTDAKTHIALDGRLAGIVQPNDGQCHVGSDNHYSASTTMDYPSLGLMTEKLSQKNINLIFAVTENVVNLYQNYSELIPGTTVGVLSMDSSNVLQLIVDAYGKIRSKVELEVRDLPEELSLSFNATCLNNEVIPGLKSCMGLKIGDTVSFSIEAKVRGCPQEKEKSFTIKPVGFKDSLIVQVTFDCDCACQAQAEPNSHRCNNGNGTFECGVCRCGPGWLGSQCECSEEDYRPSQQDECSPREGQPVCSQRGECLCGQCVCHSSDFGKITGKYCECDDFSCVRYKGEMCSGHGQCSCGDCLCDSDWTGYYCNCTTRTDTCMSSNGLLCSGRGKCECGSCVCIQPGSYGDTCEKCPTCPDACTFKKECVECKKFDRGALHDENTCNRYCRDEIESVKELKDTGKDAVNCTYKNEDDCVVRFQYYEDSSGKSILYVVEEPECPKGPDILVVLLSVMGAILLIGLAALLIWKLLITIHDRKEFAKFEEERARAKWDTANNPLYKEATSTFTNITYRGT

Substance: c(RGDfY)
- Tumour uptake ([1]; 60 min p.i.): 0.4 ± 0.1^c % ID/g
- Tumour/blood ([1]; 60 min p.i.): 1.1
- Tumour/muscle ([1]; 60 min p.i.): 2.7
- IC50 [2]: 40 nM

Substance: c(RGDyK)
- Tumour uptake [3]: 3.0 ± 0.1^b % ID/g
- Tumour/blood [3]: 20.2
- Tumour/muscle [3]: 4.7

Substance: DOTA-E[E-c(RGDyK)z]2
- Tumour uptake ([4]; 120 min p.i.): 7.6 ± 0.6^b % ID/g

Substance: FP-PEG-c(RGDyK)
- Tumour uptake ([4]; 120 min p.i.): 2.6 ± 0.1^b % ID/g
- Tumour/blood ([4]; 120 min p.i.): 18.4
- Tumour/muscle ([4]; 120 min p.i.): 25.6

Substance: DOTA-RGD
- Tumour uptake ([1]; 60 min p.i.): 1.1 ± 0.04^c % ID/g
- Tumour/blood ([1]; 60 min p.i.): 11.8
- Tumour/muscle ([1]; 60 min p.i.): 2.8

Substance: DOTA-c(RGDyK)
- Tumour uptake [3]: 1.4 ± 0.1^b % ID/g
- Tumour/blood [3]: 6.9
- Tumour/muscle [3]: 6

Substance: RGD-4C
- Tumour/blood [6]: 1.6
- Tumour/muscle [6]: 2.6

Substance: mPEG-c(RGDyK)
- Tumour uptake ([4]; 120 min p.i.): 5.1 ± 0.3^b % ID/g
- Tumour/blood ([4]; 120 min p.i.): 85

Substance: DTPA-RGD
- Tumour uptake [7]: 0.1 ± 0.02^d % ID/g
- Tumour/blood [7]: 9.2
- Tumour/muscle [7]: 7.9

Substance: c(RGDfMe V)
- Tumour uptake [8]: 0.9 ± 0.1^c % ID/g
- Tumour/blood [8]: 5.2
- Tumour/muscle [8]: 2.7

Substance: DOTA-E-[c(RGDfK])2
- Tumour uptake [9]: 7.5 ± 1.5^b % ID/g
- Tumour/blood [9]: 40^g ^

Substance: c(RGDfE)HEG-Dpr
- Tumour uptake [5]: 0.5 ± 0.1^b % ID/g
- Tumour/blood [5]: 12.4
- Tumour/muscle [5]: 13.2
- IC50 ([2]; IC50 value for the corresponding compound): 20 nM

Other lines, results leading:

- Tumour uptake [5]: 1.1 ± 0.1^b % ID/g
- Tumour/blood [5]: 9.7
- Tumour/muscle [5]: 8.1
Substance: DKCK-RGD

- Tumour uptake ([1]; 120 min p.i.): 1.5 ± 0.2^b % ID/g
- Tumour/blood ([1]; 120 min p.i.): 8.6
- Tumour/muscle ([1]; 120 min p.i.): 4.9
- IC50 [2]: 10 nM
Substance: c(RGDy V)

- Tumour uptake [3]: 4^b,g % ID/g
Substance: FP-E-c(RGDyK)2

- Tumour uptake [5]: 1.7 ± 0.1^b % ID/g
- Tumour/blood [5]: 21.3
- Tumour/muscle [5]: 23.1
- IC50 [2]: 0.2 nM
Substance: ((c(RGDfE)HEG)2-K)2-Dpr

- Tumour uptake ([4]; 4 h p.i.): 1.6 ± 0.2^d % ID/g
- Tumour/blood [4, 10]: 80^g ^
- Tumour/muscle [4, 10]: 16^g ^
Substance: DOTA-PEG-c(RGDyK)

- Tumour uptake [9]: 5.8 ± 0.5^b % ID/g
- Tumour/blood [9]: 10^g ^
Substance: HYNIC-E-[c(RGDfK])2

- Tumour uptake [3]: 1.0 ± 0.3^b % ID/g
- Tumour/blood [3]: 12.2
- Tumour/muscle [3]: 5.8
Substance: FB-c(RGDyK)

- Tumour uptake [5]: 1.8 ± 0.3^b % ID/g
- Tumour/blood [5]: 7.9
- Tumour/muscle [5]: 6.2
- IC50 [2]: 40 nM
Substance: RGD

- Tumour uptake [5]: 1.6 ± 0.1^b % ID/g
- Tumour/blood [5]: 12.4
- Tumour/muscle [5]: 14.2
- IC50 [2]: 3 nM
Substance: (c(RGDfE)HEG)2-K-Dpr
